Where a SMILES comes first, the peptide text is derived from it. Bridges are numbered along the chain shown (N, C = ends).
What was measured:
[1] = Turbidity assay (absorbance at 350 nm); format: physicochemical; settings: qualitative, tetra-lysine-tagged compared with K* peptide
Description: Solutions with appropriate buffering agent at pH 4.0–8.0 as specified, NaCl as required and containing 40 μM ThT were prepared in Corning^TM black clear bottom 96-well plates (cat no. 3631). Peptides and proteins were diluted from concentrated stocks into buffer immediately prior to measurement. […] Plates were sealed with optically clear sealing film (Corning^TM, cat no. 6575) and loaded into a BMG POLARstar Omega microplate reader maintained at RT or 37 °C. Plates were shaken for 30 s at 700 rpm before first read (unless otherwise specified), and wells were excited at 440 nm, with fluorescence emission measured at 480 nm (filters +/– 10 nm). The gain was set at 1–5% from a buffer and ThT-containing sample. Assays were continued until fluorescence emission plateaued. Turbidity assays were performed concurrently to ThT assays, with absorbance at 350 nm measured after ThT emission measurement.

HT-29 cells = experiment: Confocal imaging of labelled peptides in fixed, permeabilised HT-29 cells; format: cell-based, human; settings: 10 nM labelled peptide, 30 min, cells untreated (DMSO), apoptosis (TNF + BV-6) or necroptosis (TSZ), 6 h, washed
Description: HT-29 cells grown in TC treated T175 flasks (Corning^TM) were aspirated, washed once with RT DPBS then trypsinised with 0.3 vol warmed trypsin EDTA for 3–5 min at 37 °C twice. Trypsin was quenched with 0.7 vol warmed D10 and then the mixture was centrifuged 400×g at RT for 5 min. Supernatant was discarded, then cells were resuspended in warm supplemented DMEM. A small sample was diluted 1:10 in trypan blue and loaded onto a haemocytometer for cell counting, then the cell suspension was diluted in warmed DMEM to 8.5 × 10^4 cells/ml. Cells were seeded onto a 96-well clear bottom PhenoPlate (Revvity) coated in a collagen I matrix at 1.7 × 10^4 cells/well and incubated at 37 °C in 5% CO2 overnight.
CellTracker^TM Orange CMRA (Invitrogen) was diluted to 5 μM in DMEM and warmed to 37 °C. HT-29 cells were washed once in DPBS, then CellTracker^TM Orange (50 μl) was added to each well (excluding wells to be incubated with Alexa Fluor 594-labelled control peptide) and incubated at 37 °C in 5% CO2 for 45 min. Following incubation, CellTracker^TM Orange solution was aspirated and replaced with 150 μl D10. […]
Imaging was performed on an Opera Phenix (PerkinElmer) at 63X magnification (water immersion) in confocal mode using the parameters given below. […] Intensity thresholds were adjusted as indicated to remove background fluorescence based on control wells for image exports. […] Cell counts were identified using DAPI stain (Method C) and cytoplasm identified by CellTracker^TM Orange stain (Method B), and all subsequent analysis was conducted on Cy5 fluorescence detected within cells as determined by these parameters. Total Cy5 intensity analysis, as well as spot analysis (spots detected using Method B), was performed measuring number of detected spots, mean spot size (px^2) and spot fluorescence intensity (corrected and relative). […] Statistical significance between untreated, apoptosis and necroptosis induced conditions and between no peptide controls was determined by 2-way ANOVA testing using Tukey’s multiple comparisons tests.

solubility [1]	Compound	presence/binding of labelled peptide in fixed, permeabilised cells (HT-29 cells)
increased solubility	CC(C)C[C@H](NC(=O)[C@H](C)NC(=O)[C@H](Cc1ccc(O)cc1)NC(=O)[C@H](Cc1ccccc1)NC(=O)[C@H](CCCNC(=N)N)NC(=O)[C@H](CCCCN)NC(=O)[C@H](C)NC(=O)[C@H](CCCNC(=N)N)NC(=O)[C@H](CC(C)C)NC(=O)[C@@H](NC(=O)[C@@H]1CSCC(=O)N[C@@H](Cc2ccc(O)cc2)C(=O)N[C@@H](C(C)C)C(=O)N[C@@H](CC(C)C)C(=O)N1)[C@@H](C)O)C(=O)N[C@@H](Cc1ccccc1)C(=O)N[C@@H](CC(C)C)C(=O)N[C@@H](CO)C(=O)NCC(=O)N[C@@H](CCCCN)C(=O)N[C@@H](CCCCN)C(=O)N[C@@H](CCCCN)C(=O)N[C@@H](CCCCN)C(=O)O [A1Ktag] ({CH2CO}-YVLCTLRAKRFYALFLSGKKKK-OH; thioether N-4; C-terminus assumed)	observed inside all cells
–	CC[C@H](C)[C@@H]1NC(=O)[C@H](Cc2ccc(O)cc2)NC(=O)[C@H](CCCNC(=N)N)NC(=O)[C@H](CO)NC(=O)[C@H](Cc2c[nH]c3ccccc23)NC(=O)[C@@H]2CCCN2C(=O)[C@H](C(C)C)NC(=O)[C@H](CC(N)=O)NC(=O)[C@H](Cc2ccccc2)NC(=O)[C@H](Cc2ccc(O)cc2)NC(=O)CSC[C@@H](C(=O)NCC(=O)N[C@@H](CCCCN)C(=O)N[C@@H](CCCCN)C(=O)N[C@@H](CCCCN)C(=O)N[C@@H](CCCCN)C(=O)O)NC(=O)[C@H](Cc2ccc(O)cc2)NC(=O)[C@H](Cc2ccc(O)cc2)NC(=O)[C@H](C(C)C)NC(=O)[C@H](CO)NC(=O)[C@H](CC(C)C)NC1=O [A2Ktag] ({CH2CO}-YFNVPWSRYILSVYYCGKKKK-OH; thioether N-16; C-terminus assumed)	observed inside all cells
–	CC[C@H](C)[C@@H]1NC(=O)[C@H](Cc2ccc(O)cc2)NC(=O)CSC[C@@H](C(=O)N[C@@H](Cc2c[nH]c3ccccc23)C(=O)N[C@H](C(=O)N[C@@H](Cc2c[nH]c3ccccc23)C(=O)N[C@@H](CC(C)C)C(=O)N[C@@H](CC(C)C)C(=O)N[C@@H](CO)C(=O)NCC(=O)N[C@@H](CCCCN)C(=O)N[C@@H](CCCCN)C(=O)N[C@@H](CCCCN)C(=O)N[C@@H](CCCCN)C(=O)O)C(C)C)NC(=O)[C@H](CCC(N)=O)NC(=O)[C@H](CC(=O)O)NC(=O)[C@H](Cc2ccc(O)cc2)NC(=O)[C@H](Cc2c[nH]c3ccccc23)NC(=O)[C@H](CCCNC(=N)N)NC(=O)[C@H](CC(C)C)NC(=O)[C@H](C(C)C)NC(=O)[C@H](CCC(=O)O)NC1=O [A4Ktag] ({CH2CO}-YIEVLRWYDQCWVWLLSGKKKK-OH; thioether N-11; C-terminus assumed)	observed inside all cells
